Data published in patent US20080026996A1, “Selective Vpac2 Receptor Reptide Agonists” (ELI LILLY AND COMPANY, priority 2004, published 2008).
“And” between values parts separate entries of the source, which are not always exact repeats. Identical values can stand only once. Where no end group is shown, it is not given here. The star is where a group is joined. Hexanoyl = CCCCCC(=O)*

Legend:
[1] = target: T1, human VPAC1 (Homo sapiens, UniProt P32241); test: Filter binding assay, membranes of cells transiently transfected with human VPAC1, 125I-labeled VIP tracer (Table 2); set-up: expressed in transfected cells; details: read-out: Human VPAC1 Receptor Binding
T1 sequence (P32241 31-457): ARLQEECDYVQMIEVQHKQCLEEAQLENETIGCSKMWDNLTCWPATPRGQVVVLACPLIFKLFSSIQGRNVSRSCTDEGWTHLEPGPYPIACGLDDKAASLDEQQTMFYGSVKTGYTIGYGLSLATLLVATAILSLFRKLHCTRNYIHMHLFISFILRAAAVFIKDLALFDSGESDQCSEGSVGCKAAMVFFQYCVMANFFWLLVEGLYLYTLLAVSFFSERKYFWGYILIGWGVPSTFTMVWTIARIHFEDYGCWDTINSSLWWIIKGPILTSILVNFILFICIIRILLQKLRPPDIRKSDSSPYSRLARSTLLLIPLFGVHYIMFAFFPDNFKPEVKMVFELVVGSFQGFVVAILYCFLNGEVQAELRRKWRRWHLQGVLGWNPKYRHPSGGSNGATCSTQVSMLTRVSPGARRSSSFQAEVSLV
How it was run: (§1)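 Scintillation counting of filter-retained radioligand gave the read-out. Compounds competed with the labelled tracer (about 40000 cpm) for 2.5 μg membranes during 1 hour of shaking in HEPES pH 7.4 buffer containing 0.5% BSA.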

[2] = target: T2, human VPAC2 (Homo sapiens, UniProt P41587); test: Filter binding assay, membranes of stable VPAC2 cell line, 125I-labeled VIP tracer (Table 2); details: read-out: Human VPAC2 Receptor Binding
T2 construct: expressed in transfected cells
T2 sequence (P41587 24-438): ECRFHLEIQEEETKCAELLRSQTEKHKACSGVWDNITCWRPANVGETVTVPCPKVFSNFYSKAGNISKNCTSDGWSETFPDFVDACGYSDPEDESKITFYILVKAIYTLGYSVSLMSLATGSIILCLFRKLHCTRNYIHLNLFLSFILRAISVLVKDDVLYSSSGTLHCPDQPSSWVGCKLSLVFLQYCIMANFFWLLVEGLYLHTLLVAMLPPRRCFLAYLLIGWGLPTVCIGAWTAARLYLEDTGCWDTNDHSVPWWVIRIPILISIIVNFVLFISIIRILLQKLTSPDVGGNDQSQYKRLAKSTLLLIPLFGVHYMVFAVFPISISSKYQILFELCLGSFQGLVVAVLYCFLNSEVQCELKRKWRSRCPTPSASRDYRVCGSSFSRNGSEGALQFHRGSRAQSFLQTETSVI
How it was run: as §1

[3] = target: T2, human VPAC2; test: DiscoveRx cAMP in vitro potency, CHO-S cell line stably expressing human VPAC2 receptor; type: cell-based; details: cAMP generation; mean of two independent runs
Procedure: (§2) Also, the cells are washed twice. The cells are incubated in assay buffer plus IBMX for 15 minutes at room temperature. […] The stimuli are present for 30 minutes. Then, the assay buffer is gently removed. […] At day 3, the assay described above for the VPAC2 receptor cell line is performed.

[4] = target: T3, DPP-IV (Sus scrofa, UniProt P22411); test: DPP-IV HPLC assay: in vitro incubation with purified dipeptidyl-peptidase IV; type: in vitro ADME, Porcine
T3 construct: purchased Sigma
T3 sequence (P22411 whole entry): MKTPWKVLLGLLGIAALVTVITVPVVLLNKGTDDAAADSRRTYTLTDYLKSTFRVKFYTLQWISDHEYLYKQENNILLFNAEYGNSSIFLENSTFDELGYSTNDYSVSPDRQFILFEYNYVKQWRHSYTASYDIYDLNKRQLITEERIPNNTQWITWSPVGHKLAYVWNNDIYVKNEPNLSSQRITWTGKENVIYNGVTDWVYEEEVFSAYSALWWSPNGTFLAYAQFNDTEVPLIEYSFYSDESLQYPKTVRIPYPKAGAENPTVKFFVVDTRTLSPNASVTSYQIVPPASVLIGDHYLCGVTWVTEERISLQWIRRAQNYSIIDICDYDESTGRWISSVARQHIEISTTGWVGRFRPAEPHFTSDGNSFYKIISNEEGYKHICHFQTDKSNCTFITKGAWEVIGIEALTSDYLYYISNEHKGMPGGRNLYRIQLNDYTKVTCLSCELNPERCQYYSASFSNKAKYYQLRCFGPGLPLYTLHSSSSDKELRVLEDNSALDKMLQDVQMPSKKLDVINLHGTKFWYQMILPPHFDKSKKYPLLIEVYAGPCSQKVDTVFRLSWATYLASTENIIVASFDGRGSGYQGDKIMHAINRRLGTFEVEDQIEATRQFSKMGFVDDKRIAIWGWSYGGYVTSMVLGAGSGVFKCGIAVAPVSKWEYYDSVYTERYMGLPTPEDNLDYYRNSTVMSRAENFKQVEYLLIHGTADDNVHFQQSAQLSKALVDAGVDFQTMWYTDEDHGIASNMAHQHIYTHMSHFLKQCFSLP
Procedure: Part 1: Formulation of Selective VPAC2 Receptor Peptide Agonists: […]
Approximately 2 mg of lyophilized peptide is weighed and dissolved in approximately 1.6 mL de-ionized water. […] After incubation at room temperature for 30 minutes, 1/10th of the original volume 10×PBS is added. The pH is adjusted to between pH 7.2 and 7.6. The peptide solution is filtered through a 0.22 μm Millex-GV syringe filter (Millipore, Bedford Mass., USA). The peptide concentration is determined through absorption at 280 nm. The peptide concentration is then adjusted to 100 μM. The peptides are frozen at −20° C. for further use.
Part 2: In Vitro Incubation of Selective VPAC2 Receptor Peptide Agonists with Purified Dipeptidyl-Peptidase IV (DPP-IV):
The stability of selective VPAC2 receptor peptide agonists against proteolysis by DPP-IV is determined using 100 μL of a 100 μM peptide solution in 1×PBS. A 10 μL solution is removed and quenched with 40 μL of 0.1% trifluoroacetic acid (TFA)/20% acetonitrile (ACN). This solution (20 μL) is analyzed by reversed-phase HPLC. The reversed-phase analysis consists of a Zorbax 300SB-C8 column (3.5 micron, 4.6×50 mm, Alltech Associates, Inc., Deerfield Ill., USA) running a 15-40% B gradient over 15 minutes at 60° C. where A-buffer is 0.1% (v/v) TFA in water and B-buffer is 0.085% (v/v) TFA in ACN. The peak area is integrated. This peak area serves as an internal control as 100% intact peptide.
A 10 μL aliquot of a 1.12 mU/μL solution of DPP-IV (Sigma, St. Louis, La., USA) is added to 90 μL of a 100 μM solution of peptide, resulting in a substrate concentration of 90 μM peptide. The reaction mixture is then stored at 37° C. At various time-points, 10 μL of solution is removed, quenched with 40 μL 0.1% TFA/20% ACN, and analyzed by reversed-phase HPLC as described above. The remaining full length peptide concentration (nM) at each timepoint, except time=0, is calculated using following formula: [formula]
For the time=0 timepoint, the concentration (nM) is calculated using the following formula: [formula]

[5] = target: T1, human VPAC1; test: DiscoveRx cAMP in vitro potency, CHO-PO cells transiently transfected with human VPAC1 receptor; type: cell-based; set-up: expressed in transfected cells; host or cells: CHO-PO, transient (Lipofectamine); details: cAMP generation; mean of two independent runs; read-out: Human VPAC1 Receptor: DiscoveRx EC50
Procedure: as §2

[6] = test system: Normal Wistar rats; test: Intravenous glucose tolerance test (IVGTT); type: in vivo, rat; details: IVGTT, insulin
Procedure: Intravenous glucose tolerance test (IVGTT): Normal Wistar rats are fasted overnight and are anesthetized prior to the experiment. A blood sampling catheter is inserted into the rats. The compound is given in the jugular vein. Blood samples are taken from the carotid artery. A blood sample is drawn immediately prior to the injection of glucose along with the compound. After the initial blood sample, glucose mixed with compound is injected intravenously (i.v.). A glucose challenge of 0.5 g/kg body weight is given, injecting a total of 1.5 mL vehicle with glucose and agonist per kg body weight. The peptide concentration vary to produce the desired dose in μg/kg. Blood samples are drawn at 2, 4, 6 and 10 minutes after giving glucose. The control group of animals receives the same vehicle along with glucose, but with no compound added. In some instances, a 30 minute post-glucose blood sample is drawn. Aprotinin is added to the blood sample (250 kIU/ml blood). The serum is then analyzed for glucose and insulin using standard methodologies.
The assay uses a formulated and calibrated peptide stock in PBS. Normally, this stock is a prediluted 100 μM stock. However, a more concentrated stock with approximately 1 mg agonist per mL is used. The specific concentration is always known. Variability in the maximal response is mostly due to variability in the vehicle dose.

[7] = target: T4, human PAC1 (Homo sapiens, UniProt P41586); test: DiscoveRx cAMP in vitro potency, CHO-PO cells transiently transfected with human PAC1 receptor; type: cell-based; set-up: expressed in transfected cells; host or cells: CHO-PO, transient (Lipofectamine); details: cAMP generation; mean of two independent runs; read-out: Human PAC1 Receptor: DiscoveRx EC50
T4 sequence (P41586 21-468): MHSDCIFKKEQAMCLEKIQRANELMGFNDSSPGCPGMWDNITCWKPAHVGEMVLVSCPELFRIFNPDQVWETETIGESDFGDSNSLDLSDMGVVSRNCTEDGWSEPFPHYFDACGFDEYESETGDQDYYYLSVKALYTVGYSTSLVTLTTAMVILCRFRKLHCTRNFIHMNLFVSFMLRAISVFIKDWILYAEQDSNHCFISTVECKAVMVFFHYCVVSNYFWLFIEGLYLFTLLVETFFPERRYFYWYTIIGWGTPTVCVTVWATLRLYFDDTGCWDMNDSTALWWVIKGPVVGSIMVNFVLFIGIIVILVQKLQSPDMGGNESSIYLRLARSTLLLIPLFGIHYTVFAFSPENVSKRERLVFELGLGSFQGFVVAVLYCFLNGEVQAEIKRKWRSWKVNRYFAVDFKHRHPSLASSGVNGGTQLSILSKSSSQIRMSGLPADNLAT
Procedure: as §2

Substance: HSDAVFTDNYTRAAAKVAAKKYLQSIKNKRYGGPSSGAPPPS [Agonist P88]
- IC50 [1]: 979 nM
- IC50 [2]: 93.9 nM
- EC50 [3]: > 1000 nM

Substance: Hexanoyl-HSDAVFTDNYTRLRKQVAAKKYLQSIKNKRYGGPSSGAPPPS [VPAC2-P31]
- Concentration (nM) of Remaining Main Peak by RP-HPLC after Incubation of Peptide with Purified Porcine DPP-IV ([4]; Time = 0 hours at 37° C.): 9.0 nM
- Concentration (nM) of Remaining Main Peak by RP-HPLC after Incubation of Peptide with Purified Porcine DPP-IV ([4]; Time = 2 hours at 37° C.): 8.0 nM and 7.0 nM and 6.7 nM
- Concentration (nM) of Remaining Main Peak by RP-HPLC after Incubation of Peptide with Purified Porcine DPP-IV ([4]; Time = 6 hours at 37° C.): 6.7 nM and 6.1 nM and 5.6 nM
- Concentration (nM) of Remaining Main Peak by RP-HPLC after Incubation of Peptide with Purified Porcine DPP-IV ([4]; Time = 24 hours at 37° C.): 2.2 nM and 2.6 nM and 3.9 nM

Substance: MHSDAVFTDNYTRLRKQVAAKKYLQSIKNKRYGGPSSGAPPPS [VPAC2-P104]
- Concentration (nM) of Remaining Main Peak by RP-HPLC after Incubation of Peptide with Purified Porcine DPP-IV ([4]; Time = 0 hours at 37° C.): 9.0 nM
- Concentration (nM) of Remaining Main Peak by RP-HPLC after Incubation of Peptide with Purified Porcine DPP-IV ([4]; Time = 2 hours at 37° C.): 7.8 nM
- Concentration (nM) of Remaining Main Peak by RP-HPLC after Incubation of Peptide with Purified Porcine DPP-IV ([4]; Time = 6 hours at 37° C.): 6.6 nM
- Concentration (nM) of Remaining Main Peak by RP-HPLC after Incubation of Peptide with Purified Porcine DPP-IV ([4]; Time = 24 hours at 37° C.): 4.1 nM

Substance: H-HSDAVFTDNYTRFRKQVAAKKYLQSIKNKRYGGPSSGAPPPS [Agonist P26]
- EC50 [5]: 0.9 nM

Substance: HSDAVITDNYTRLRKQVAAKKYLQSIKNKRYGGPSSGAPPPS [Agonist P63]
- EC50 [5]: > 1000 nM
- EC50 [3]: > 1000 nM

Substance: H-HSDAVFTDNYTRAKAKVAAKKYLQSIKNKRYGGPSSGAPPPS [Agonist P94]
- IC50 [1]: 271 nM
- IC50 [2]: 71.5 nM
- EC50 [3]: > 1000 nM

Substance: HSDIVFTDNYTRLRKQVAAKKYLQSIKNKRYGGPSSGAPPPS [Agonist P50]
- EC50 [3]: 19.3 nM

Substance: HVDAVFTDNYTRLRKQVAAKKYLQSIKNKRYGGPSSGAPPPS [Agonist P44]
- % increase AUC: Dose = 0.1 μg/kg ([6]; 0.1 μg/kg): 19%
- % increase AUC: Dose = 10 μg/kg ([6]; 10 μg/kg): 194%
- EC50 [3]: 0.92 nM

Substance: HSDAVFTDNYTRLRKQVAAKKYLQSIKNKIYGGPSSGAPPPS [Agonist P76]
- EC50 [5]: 0.8 nM

Substance: VPAC2-P44 (HVDAVFTDNYTRLRKQVAAKKYLQSIKNKRYGGPSSGAPPPS; not fully specified (N-terminus))
- Concentration (nM) of Remaining Main Peak by RP-HPLC after Incubation of Peptide with Purified Porcine DPP-IV ([4]; Time = 0 hours at 37° C.): 9.0 nM
- Concentration (nM) of Remaining Main Peak by RP-HPLC after Incubation of Peptide with Purified Porcine DPP-IV ([4]; Time = 2 hours at 37° C.): 6.4 nM and 7.9 nM and 4.5 nM and 6.5 nM

Substance: Ac-HSDAVFTDNYTRLRKQVAAKKYLQSIKNKRYGGPSSGAPPPS [Agonist P33]
- IC50 [1]: 120 nM
- IC50 [2]: 2.31 nM
- EC50 [7]: 111 nM
- EC50 [3]: 0.86 nM
